Drawing on paper PMC8545225 (Nanoscale, 2021), this text covers Diffusion coefficient ds for two molecules.

Each structure is given as a SMILES string.

The nature of the data set: 2D DOSY NMR diffusion measurement and hydrodynamic size. Format: physicochemical. The note with it: DOSY NMR in D2O, free ligands at 289.75 K.

In the case of `O=C(O)c1ccc(P(c2ccccc2)c2ccccc2)cc1` [DPPBA, 4-(diphenylphosphino)benzoic acid], the Diffusion coefficient ds is on record as 1.37 × 10^−9 m^2·s^−1.
The value for `O=S(=O)([O-])c1cccc(P(c2ccccc2)c2ccccc2)c1.[Na+]` [TPPMS, triphenylphosphine monosulfonate] was 2.42 × 10^−10 m^2·s^−1.
